The nature of data set [1]: Animal mortality and survival after intra-tumoural injection in tumour-bearing nude mice. The note with it: for animal mortality rate: intratumoural. It counts as in vivo. The procedure:
The following protocol was adopted: • 1. Culture of human cells and implantation of the tumour cells as solid tumours in nude mice: The carcinoma cell-line was cultured in RPMI and Ham's F-12 media respectively with 10% fetal calf serum in a CO2 incubator and subcultured every two to three days until growing to a number enough for implantation in animals. The cells were then implanted as solid tumors in nude mice]. The cells were collected in HBSS (Hanks balanced salt solution). One hundred microliters of cell suspension in HBSS (5×10^6 cells) was injected subcutaneously into right gluteal region of nude mice (female, 6 to 9 week old nude mice with average body weight of 25 g, housed in pathogen-free conditions) using a 25-gauge needle. • 2. Animals groups: Animals were randomly grouped into control 1 (injected with peanut oil), control 2 (injected with porous silicon without drug), free chlorambucil (drug injected without porous silicon directly into tumour or injected via intraperitoneal route) and chlorambucil impregnated porous silicon groups. Each group included 16 to 20 animals. • 3. Injection of chlorambucil impregnated porous silicon in transplanted tumours: On day 14 after implantation of tumours (diameter of the tumour about lcm), the chlorambucil impregnated formulation was applied to the centre of the tumours. • 4. Tumour volumetrics: The sizes of implanted tumours in nude mice was estimated every 3 days. The largest and smallest diameters were measured by a vernier caliper and tumour volumes estimated according the formula: V=½ ab^2, where a and b are largest and smallest tumour diameters respectively, and V is the tumour volume in cm^3.
The effects of intra-tumoural administered chlorambucil loaded porous silicon on the growth of the tumour was studied and compared with control and systemic therapy groups. The body weight of the animals was estimated by subtracting the tumour volume (cm3) from the total body weight (g) every 3 days. The survival time of each experimental animal was recorded. […]

A further data set relates to HeLa cells. The data set can be described thus: Live/Dead cell assay. The note with it: 24 hours, chlorambucil 90 μg/ml.

Experimental for HeLa cells: Cells with formulated drug were collected at 24 hours after incubation, placed into sterile plastic tubes and centrifuged. The supernatants were aspirated out and the cell pellets were washed gently with copious amount of PBS and centrifuged to remove any excipient. The cell pellet was dislodged gently and incubated with 300 μl of Live/dead cell assay reagent and incubated for 45 minutes on a rocker with gentle shaking (20 shakes per minute). At the end of incubation the cells were spun down, washed twice with PBS, reconstituted with 1 ml of PBS and transferred into a plate to capture the images of Live/Dead cells using fluorescent microscope.
The Live/Dead cell assay was performed on HeLa cell cultures grown on collagen coated plated and treated with various forms of porous silicon (AN^+/SE, loaded/unloaded, pre-formulated/formulated).
The procedure was performed on adherent cells after the floating cells were washed off. […] Therefore, percentage of live and dead cells was calculated from the adherent cells stuck to the bottom of the wells. Each sample was run in triplicate wells and one microscopic field image from each well was captured and the live and dead cells were counted to get an average % of cytotoxicity.

With `O=C(O)CCCc1ccc(N(CCCl)CCCl)cc1` [chlorambucil, 4-[bis(2-chloroethyl)amino}benzenebutanoic acid], the animal mortality rate is 50% in data set [1] (720 ug) and 90% in data set [1] (1500 ug (2×LD50)). This molecule registered an LD50 in data set [1] (nude mice, free drug) of 720 µg. The “dead cell percentage (cytotoxicity)” value in the data set on HeLa cells was no less than 95%.
